From article PMC10384862, “[^212Pb]Pb-eSOMA-01: A Promising Radioligand for Targeted Alpha Therapy of Neuroendocrine Tumors” (Pharmaceuticals, 2023)
Like-named read-outs stand apart in the source and are kept apart here. Each block holds one compound with its values, some of them ahead of it.

Experiments:
[1] = test system: H69-xenograft Balb/c nu/nu mice; assay: Biodistribution study with lead-212; assay type: in vivo, mouse; details: 1 h p.i.; n = 4
Description: (§1) Six-week-old male Balb/c nu/nu-specific and opportunistic pathogen-tree (SOPF) mice (Janvier Labs, Le Genest-Saint-Isle, France) were housed in individually ventilated cages, with four mice per cage. Upon arrival, the mice were acclimated for 1 week with access to food and water ad libitum. Mice were subcutaneously inoculated on the right shoulder with NCI-H69 cells (5 × 10^6 cells suspended in 100 μL of 1/3 Matrigel (Corning Inc.; Corning, NY, USA) and 2/3 Hank’s balanced salt solution (Gibco; Paisley, UK). NCI-H69 xenografts were allowed to grow for 3 weeks. Tumor sizes were 391 ± 173 mm^3 at the start of the studies.
(§2) Biodistribution studies were performed to determine tumor and organ uptake of [^212Pb]Pb-DOTAM-TATE, [^212Pb]Pb-eSOMA-01, and [^212Pb]Pb-eSOMA-02. Animals (n = 4 for each time point) were injected intravenously (i.v.) with an average of 100 kBq/0.5 nmol. At 3 selected time points (1, 4, and 24 h) p.i., blood was collected via retro-orbital puncture under isoflurane/O2 anesthesia, after which the mice were sacrificed via cervical dislocation. The tumor and organs of interest (heart, lungs, liver, spleen, stomach, large intestine, small intestine, pancreas, kidneys, muscle, skin, and bone) were excised, washed in PBS, and blotted dry. To confirm receptor specificity of radioligand uptake, mice (n = 3) were co-injected with an excess (25 nmol) of the respective unlabeled peptide, and uptake in the organs of interest was determined at 24 h p.i. To determine the total injected radioactivity per animal, a calibration curve with lead-212 was established using the gamma counter. The percentage of injected dose per gram (% ID/g) was determined for each tissue sample and corrected for both the injected volume and the % ID present at the injection site (the tail).

[2] = Biodistribution study with lead-212; assay type: in vivo, mouse; details: mouse, intravenous; for tissue uptake at 1 h: 1 h p.i.; for tissue uptake at 4 h: 4 h p.i.
Description: as §1, §2

[3] = In vitro stability in PBS; assay type: physicochemical; details: 37 °C, n = 1
Description: The ^203Pb-labeled compounds (~ 2 MBq) or the ^212Pb-labeled compounds (~ 70 kBq) were incubated in 300 µL of phosphate buffered saline (PBS; 0.1 M, pH 7.4) or mouse serum at 37 °C. The stability of the radiolabeled peptides was monitored at 1, 4, and 24 h post-incubation. The samples in PBS were directly analyzed by radio-HPLC without any pretreatment. However, samples of mouse serum were mixed with an equal volume of acetonitrile to precipitate the proteins. The solution was centrifuged twice for 5 min at 13,000 rpm, and the supernatant was analyzed by radio-HPLC using Method 1 for lead-203 and Method 2 for lead-212.

[4] = LogD7.4 by shake-flask method (n-octanol/PBS); assay type: physicochemical; details: ^203Pb-labeled compound; n-octanol/PBS pH 7.4; n = 3
Description: Distribution coefficients (LogD7.4) were determined by the shake-flask method. A sample containing the ^203Pb-labeled compound (~1 MBq) was added to a vial containing PBS (600 µL, pH 7.4) and n-octanol (600 µL). The vial was vortexed vigorously and then centrifuged at 10,000 rpm for 10 min for phase separation. Samples (100 µL) of the n-octanol and aqueous phases were taken and measured by a gamma counter. The LogD7.4 value was calculated by using the equation: LogD7.4 = log [(counts in the n-octanol phase)/(counts in the aqueous phase)]. Measurements were performed in triplicate.

[5] = blood, 100 kBq, n = 4, read-out: Blood uptake
[6] = intestines, 100 kBq, n = 4, read-out: Intestines uptake
[7] = kidneys, 100 kBq, n = 4, read-out: Kidneys uptake
[8] = liver, 100 kBq, n = 4, read-out: Liver uptake
[9] = lungs, 100 kBq, n = 4, read-out: Lungs uptake
[10] = pancreas, 100 kBq, n = 4, read-out: Pancreas uptake
[11] = spleen, 100 kBq, n = 4, read-out: Spleen uptake
[12] = stomach, 100 kBq, n = 4, read-out: Stomach uptake
[13] = tumor, 100 kBq, n = 4, read-out: Tumor uptake

- Stomach uptake [1]: 3.7 % ID/g
- tissue uptake at 1 h [2, 5]: 1.44 ± 0.24 %ID/g
- tissue uptake at 4 h [2, 5]: 0.01 ± 0.02 %ID/g
- tissue uptake at 4 h ([2]; bone, 100 kBq, n = 4, read-out: Bones uptake): 0.03 ± 0.05 %ID/g
- tissue uptake at 1 h ([2]; heart, 100 kBq, n = 4, read-out: Heart uptake): 0.54 ± 0.21 %ID/g
- tissue uptake at 1 h [2, 6]: 2.24 ± 1.05 %ID/g
- tissue uptake at 4 h [2, 6]: 0.67 ± 0.21 %ID/g
- tissue uptake at 24 h ([2]; intestines, 100 kBq, 24 h p.i., n = 4, read-out: Intestines uptake): 0.13 ± 0.09 %ID/g
- tissue uptake at 24 h ([2]; intestines, 24 h block: co-injection of excess (25 nmol) unlabeled peptide, read-out: Intestines uptake): 0.03 ± 0.03 %ID/g
- tissue uptake at 1 h [2, 7]: 81.1 ± 14.3 %ID/g
- tissue uptake at 4 h [2, 7]: 50.5 ± 3.24 %ID/g
- tissue uptake at 24 h ([2]; kidneys, 100 kBq, 24 h p.i., n = 4, read-out: Kidneys uptake): 28.2 ± 9.41 %ID/g
- tissue uptake at 24 h ([2]; kidneys, 24 h block: co-injection of excess (25 nmol) unlabeled peptide, read-out: Kidneys uptake): 37.9 ± 9.17 %ID/g
- tissue uptake at 1 h [2, 8]: 3.96 ± 0.37 %ID/g
- tissue uptake at 4 h [2, 8]: 3.09 ± 0.7 %ID/g
- tissue uptake at 24 h ([2]; liver, 100 kBq, 24 h p.i., n = 4, read-out: Liver uptake): 1.44 ± 0.94 %ID/g
- tissue uptake at 24 h ([2]; liver, 24 h block: co-injection of excess (25 nmol) unlabeled peptide, read-out: Liver uptake): 0.83 ± 0.87 %ID/g
- tissue uptake at 1 h [2, 9]: 3.49 ± 0.7 %ID/g
- tissue uptake at 4 h [2, 9]: 0.99 ± 0.24 %ID/g
- tissue uptake at 24 h ([2]; lungs, 100 kBq, 24 h p.i., n = 4, read-out: Lungs uptake): 0.2 ± 0.21 %ID/g
- tissue uptake at 1 h [2, 10]: 6.41 ± 0.7 %ID/g
- tissue uptake at 4 h [2, 10]: 1.25 ± 0.27 %ID/g
- tissue uptake at 24 h ([2]; pancreas, 100 kBq, 24 h p.i., n = 4, read-out: Pancreas uptake): 0.41 ± 0.37 %ID/g
- tissue uptake at 4 h ([2]; skin, 100 kBq, n = 4, read-out: Skin uptake): 0.25 ± 0.33 %ID/g
- tissue uptake at 1 h [2, 11]: 0.59 ± 0.06 %ID/g
- tissue uptake at 4 h [2, 11]: 0.39 ± 0.27 %ID/g
- tissue uptake at 1 h [2, 12]: 3.74 ± 0.66 %ID/g
- tissue uptake at 4 h [2, 12]: 1.17 ± 0.35 %ID/g
- tissue uptake at 24 h ([2]; stomach, 100 kBq, 24 h p.i., n = 4, read-out: Stomach uptake): 0.36 ± 0.27 %ID/g
- tissue uptake at 24 h ([2]; stomach, 24 h block: co-injection of excess (25 nmol) unlabeled peptide, read-out: Stomach uptake): 0.14 ± 0.28 %ID/g
- tissue uptake at 1 h [2, 13]: 7.93 ± 2.14 %ID/g
- tissue uptake at 4 h [2, 13]: 7.45 ± 0.29 %ID/g
- tissue uptake at 24 h ([2]; tumor, 100 kBq, 24 h p.i., n = 4, read-out: Tumor uptake): 1.02 ± 0.09 %ID/g
- Stability in PBS, intact labeled ligand ([3]; ^212Pb-labeled, 1 h): 97%
- Stability in PBS, intact labeled ligand ([3]; ^212Pb-labeled, 4 h): 95%
- Stability in PBS, intact labeled ligand ([3]; ^212Pb-labeled, 24 h): 95%
Structure (SMILES): C[C@@H](O)[C@H](NC(=O)[C@@H]1CSSC[C@H](NC(=O)[C@@H](Cc2ccccc2)NC(=O)CN2CCC(NC(=O)CN3CCN(CC(N)=O)CCN(CC(N)=O)CCN(CC(N)=O)CC3)CC2)C(=O)N[C@@H](Cc2ccc(O)cc2)C(=O)N[C@H](Cc2c[nH]c3ccccc23)C(=O)N[C@@H](CCCCN)C(=O)N[C@@H]([C@@H](C)O)C(=O)N1)C(=O)O [[^212Pb]Pb-eSOMA-02, metal not drawn]

- logD [4]: -1.36 ± 0.06
- Stability in PBS, intact labeled ligand ([3]; ^203Pb-labeled, 1 h): 70%
- Stability in PBS, intact labeled ligand ([3]; ^203Pb-labeled, 4 h): 40%
- Stability in PBS, intact labeled ligand ([3]; ^203Pb-labeled, 24 h): 15%
- remaining at 1 h ([3]; phosphate buffered saline, pH 7.4, ^203Pb-labeled, 1 h, read-out: Stability in PBS, intact labeled ligand): 70%
- remaining at 24 h ([3]; phosphate buffered saline, pH 7.4, ^203Pb-labeled, 24 h, read-out: Stability in PBS, intact labeled ligand): 15%
Structure (SMILES): C[C@@H](O)[C@H](NC(=O)[C@@H]1CSSC[C@H](NC(=O)[C@@H](Cc2ccccc2)NC(=S)Nc2ccc(CC3CN(CC(N)=O)CCN(CC(N)=O)CCN(CC(N)=O)CCN3CC(N)=O)cc2)C(=O)N[C@@H](Cc2ccc(O)cc2)C(=O)N[C@H](Cc2c[nH]c3ccccc23)C(=O)N[C@@H](CCCCN)C(=O)N[C@@H]([C@@H](C)O)C(=O)N1)C(=O)O (stereo partly drawn) [[^203Pb]Pb-eSOMA-03, metal not drawn]
